From publication PMC7297122 (2020)

Assays:
[1] = tested on: domain 1 crystallization RNA, unmodified (RNA, riboswitch) GGCUUCAACAACCCCGUAGGUUGGGCCGAAAGGCAGCGAAUCUACUGGAGCC; assay: X-ray crystallography; details: Mg2+
[2] = tested on: NAD+ riboswitch domain 1, wild type (unmodified domain 1 RNA) (RNA, riboswitch) GGCUUCAACAACCCCGUAGGUUGGGCCGCAAGGCAGCGAAUCUACUGGAGCC; assay: ITC; details: 100 mM KCl, 10 mM MgCl2; 40 mM HEPES-K pH 7.0 (pH 7.2 in Figure 5 legend), 298 K
[3] = tested on: C6U:G47A mutant domain 1 (RNA, riboswitch) GGCUUUAACAACCCCGUAGGUUGGGCCGCAAGGCAGCGAAUCUACUAGAGCC; assay: ITC; details: 100 mM KCl, 10 mM MgCl2; 40 mM HEPES-K pH 7.0, 298 K; 1 mM ligand titrated into 100 µM RNA
[4] = tested on: C6 2'-deoxy atomic mutant domain 1 (RNA, riboswitch, 2'-deoxy at 6) GGCUUCAACAACCCCGUAGGUUGGGCCGCAAGGCAGCGAAUCUACUGGAGCC; assay: ITC; details: 100 mM KCl, 10 mM MgCl2; 40 mM HEPES-K pH 7.0, 298 K; 1 mM ligand titrated into 100 µM RNA
[5] = tested on: G47 2'-deoxy atomic mutant domain 1 (RNA, riboswitch, 2'-deoxy at 47) GGCUUCAACAACCCCGUAGGUUGGGCCGCAAGGCAGCGAAUCUACUGGAGCC; assay: ITC; details: 100 mM KCl, 10 mM MgCl2; 40 mM HEPES-K pH 7.0, 298 K; 1 mM ligand titrated into 100 µM RNA
[6] = tested on: domain 1 crystallization RNA, 5-bromocytidine form (RNA, riboswitch, 5-bromocytidine at 3 or at 42 and 45 (which form per ligand: Table S1, not seen)) GGCUUCAACAACCCCGUAGGUUGGGCCGAAAGGCAGCGAAUCUACUGGAGCC; assay: X-ray crystallography; details: Mg2+

| SMILES | binding [1] | Kd [2] | binding [6] | other results |
| --- | --- | --- | --- | --- |
| Nc1ncnc2c1ncn2[C@@H]1O[C@H](COP(=O)(O)OP(=O)(O)OP(=O)(O)O)C[C@H]1O | yes |  |  |  |
| Nc1ncnc2c1ncn2[C@@H]1O[C@H](COP(=O)(O)OP(=O)(O)O)[C@@H](O)[C@H]1O | yes | 89 ± 15 µM |  | binding [3]: no; binding [4]: weak; binding [5]: weak |
| Nc1ncnc2c1ncn2[C@@H]1O[C@H](COP(=O)(O)O)[C@@H](O)[C@H]1O |  |  | yes |  |
| Nc1ncnc2c1ncn2[C@@H]1O[C@H](COP(=O)(O)OP(=O)(O)OP(=O)(O)O)[C@@H](O)[C@H]1O |  |  | yes |  |
| NC(=O)C1=CN([C@@H]2O[C@H](COP(=O)(O)OP(=O)(O)OC[C@H]3O[C@@H](n4cnc5c(N)ncnc54)[C@H](O)[C@@H]3O)[C@@H](O)[C@H]2O)C=CC1 |  |  |  | binding ([6]; only ADP moiety visible, also Mn2+ form 6TFH): yes |
| Nc1ncnc2c1ncn2[C@@H]1O[C@H](COP(=O)(O)OS(=O)(=O)O)[C@@H](OP(=O)(O)O)[C@H]1O | yes |  |  |  |
| NC(=O)c1ccc[n+]([C@@H]2O[C@H](COP(=O)(O)OP(=O)(O)OC[C@H]3O[C@@H](n4cnc5c(N)ncnc54)[C@H](O)[C@@H]3O)[C@@H](O)[C@H]2O)c1 |  | > 150 µM |  | binding ([6]; ADP moiety and nicotinamide ribose 5' carbon visible): yes |
| CNc1ncnc2c1ncn2[C@@H]1O[C@H](COP(=O)(O)OP(=O)(O)OP(=O)(O)O)[C@@H](O)[C@H]1O |  | 50 ± 19 µM | yes |  |
